Assay results taken from patent US20240415914A1, “Water Dispersible Cannabinoid Compositions” (priority 2021, published 2024).
Like-named read-outs stand apart in the source and are kept apart here.

Legend:
[1] = type: physicochemical; details: stored at room temperature (21-25° C.)
Description: At each time period, 0.05 g of powder was dissolved in 10 ml-15 of ethanol, diluted to fall within the analytical range, and injected into the LCMSMS for analysis.

[2] = Stability of cannabinoid and Vitamin E components of Beverage 2 (AB Red) stored at 8° C. and 21-25° C., LCMSMS over 570 days
Description: The LCMSMS was calibrated for 0-50 ng/ml cannabinoids with the same resin material used in the preparation of the concentrates. At each time period, 100 μml of beverage was diluted with 10 ml of methanol and injected into the LCMSMS for analysis.

Structure (SMILES): CCCCCc1cc(O)c2c(c1)OC(C)(CCC=C(C)C)C=C2 (stereo not shown) [CBC, cannabichromene]
- Stability in Powder Concentrate (content by LCMSMS) ([1]; day 0): 0.070 mg/g powder
- Stability in Powder Concentrate (content by LCMSMS) ([1]; day 1): 0.072 mg/g powder
- Stability in Powder Concentrate (content by LCMSMS) ([1]; day 2): 0.071 mg/g powder
- Stability in Powder Concentrate (content by LCMSMS) ([1]; day 3): 0.073 mg/g powder
- Stability in Powder Concentrate (content by LCMSMS) ([1]; day 5): 0.070 mg/g powder
- Stability in Powder Concentrate (content by LCMSMS) ([1]; day 8): 0.071 mg/g powder
- Stability in Powder Concentrate (content by LCMSMS) ([1]; day 9): 0.068 mg/g powder
- Stability in Powder Concentrate (content by LCMSMS) ([1]; day 10): 0.071 mg/g powder
- Stability in Powder Concentrate (content by LCMSMS) ([1]; day 11): 0.071 mg/g powder
- Stability in Powder Concentrate (content by LCMSMS) ([1]; day 12): 0.069 mg/g powder
- Stability in Powder Concentrate (content by LCMSMS) ([1]; day 15): 0.073 mg/g powder
- Stability in Powder Concentrate (content by LCMSMS) ([1]; day 16): 0.073 mg/g powder
- Stability in Powder Concentrate (content by LCMSMS) ([1]; day 17): 0.070 mg/g powder
- Stability in Powder Concentrate (content by LCMSMS) ([1]; day 18): 0.072 mg/g powder
- Stability in Powder Concentrate (content by LCMSMS) ([1]; day 19): 0.070 mg/g powder
- Stability in Powder Concentrate (content by LCMSMS) ([1]; day 22): 0.071 mg/g powder
- Stability in Powder Concentrate (content by LCMSMS) ([1]; day 23): 0.069 mg/g powder
- Stability in Powder Concentrate (content by LCMSMS) ([1]; day 24): 0.068 mg/g powder
- Stability in Powder Concentrate (content by LCMSMS) ([1]; day 25): 0.072 mg/g powder
- Stability in Powder Concentrate (content by LCMSMS) ([1]; day 26): 0.071 mg/g powder
- Stability in Powder Concentrate (content by LCMSMS) ([1]; day 29): 0.069 mg/g powder
- Stability in Powder Concentrate (content by LCMSMS) ([1]; day 30): 0.072 mg/g powder
- Stability in Powder Concentrate (content by LCMSMS) ([1]; day 60): 0.068 mg/g powder
- Stability in Powder Concentrate (content by LCMSMS) ([1]; day 90): 0.068 mg/g powder
- Stability in Powder Concentrate (content by LCMSMS) ([1]; day 120): 0.072 mg/g powder
- Stability in Powder Concentrate (content by LCMSMS) ([1]; day 150): 0.072 mg/g powder
- Stability in Powder Concentrate (content by LCMSMS) ([1]; day 180): 0.071 mg/g powder
- Stability in Powder Concentrate (content by LCMSMS) ([1]; day 210): 0.072 mg/g powder
- Stability in Powder Concentrate (content by LCMSMS) ([1]; day 240): 0.068 mg/g powder
- Stability in Powder Concentrate (content by LCMSMS) ([1]; day 270): 0.072 mg/g powder
- Stability in Powder Concentrate (content by LCMSMS) ([1]; day 300): 0.071 mg/g powder
- Stability in Powder Concentrate (content by LCMSMS) ([1]; day 330): 0.069 mg/g powder
- Stability in Powder Concentrate (content by LCMSMS) ([1]; day 360): 0.068 mg/g powder
- Stability in Powder Concentrate (content by LCMSMS) ([1]; day 390): 0.068 mg/g powder
- Stability in Powder Concentrate (content by LCMSMS) ([1]; day 420): 0.069 mg/g powder
- Stability in Powder Concentrate (content by LCMSMS) ([1]; day 450): 0.073 mg/g powder
- Stability in Powder Concentrate (content by LCMSMS) ([1]; day 480): 0.071 mg/g powder
- Stability in Powder Concentrate (content by LCMSMS) ([1]; day 510): 0.069 mg/g powder
- Stability in Powder Concentrate (content by LCMSMS) ([1]; day 540): 0.070 mg/g powder
- Stability in Powder Concentrate (content by LCMSMS) ([1]; day 570): 0.069 mg/g powder
- Stability of Cannabinoids in AB Red ([2]; 8° C., 0 days): 0.290 µg/mL
- Stability of Cannabinoids in AB Red ([2]; 8° C., 1 days): 0.289 µg/mL
- Stability of Cannabinoids in AB Red ([2]; 8° C., 2 days): 0.292 µg/mL
- Stability of Cannabinoids in AB Red ([2]; 8° C., 3 days): 0.285 µg/mL
- Stability of Cannabinoids in AB Red ([2]; 8° C., 5 days): 0.286 µg/mL
- Stability of Cannabinoids in AB Red ([2]; 8° C., 8 days): 0.286 µg/mL
- Stability of Cannabinoids in AB Red ([2]; 8° C., 9 days): 0.288 µg/mL
- Stability of Cannabinoids in AB Red ([2]; 8° C., 10 days): 0.288 µg/mL
- Stability of Cannabinoids in AB Red ([2]; 8° C., 11 days): 0.284 µg/mL
- Stability of Cannabinoids in AB Red ([2]; 8° C., 12 days): 0.285 µg/mL
- Stability of Cannabinoids in AB Red ([2]; 8° C., 15 days): 0.292 µg/mL
- Stability of Cannabinoids in AB Red ([2]; 8° C., 16 days): 0.283 µg/mL
- Stability of Cannabinoids in AB Red ([2]; 8° C., 17 days): 0.282 µg/mL
- Stability of Cannabinoids in AB Red ([2]; 8° C., 18 days): 0.289 µg/mL
- Stability of Cannabinoids in AB Red ([2]; 8° C., 19 days): 0.287 µg/mL
- Stability of Cannabinoids in AB Red ([2]; 8° C., 22 days): 0.287 µg/mL
- Stability of Cannabinoids in AB Red ([2]; 8° C., 23 days): 0.287 µg/mL
- Stability of Cannabinoids in AB Red ([2]; 8° C., 24 days): 0.291 µg/mL
- Stability of Cannabinoids in AB Red ([2]; 8° C., 25 days): 0.287 µg/mL
- Stability of Cannabinoids in AB Red ([2]; 8° C., 26 days): 0.287 µg/mL
- Stability of Cannabinoids in AB Red ([2]; 8° C., 29 days): 0.284 µg/mL
- Stability of Cannabinoids in AB Red ([2]; 8° C., 30 days): 0.282 µg/mL
- Stability of Cannabinoids in AB Red ([2]; 8° C., 60 days): 0.278 µg/mL
- Stability of Cannabinoids in AB Red ([2]; 8° C., 90 days): 0.287 µg/mL
- Stability of Cannabinoids in AB Red ([2]; 8° C., 120 days): 0.289 µg/mL
- Stability of Cannabinoids in AB Red ([2]; 8° C., 150 days): 0.281 µg/mL
- Stability of Cannabinoids in AB Red ([2]; 8° C., 180 days): 0.285 µg/mL
- Stability of Cannabinoids in AB Red ([2]; 8° C., 210 days): 0.282 µg/mL
- Stability of Cannabinoids in AB Red ([2]; 8° C., 240 days): 0.280 µg/mL
- Stability of Cannabinoids in AB Red ([2]; 8° C., 270 days): 0.284 µg/mL
- Stability of Cannabinoids in AB Red ([2]; 8° C., 300 days): 0.280 µg/mL
- Stability of Cannabinoids in AB Red ([2]; 8° C., 330 days): 0.278 µg/mL
- Stability of Cannabinoids in AB Red ([2]; 8° C., 390 days): 0.282 µg/mL
- Stability of Cannabinoids in AB Red ([2]; 8° C., 420 days): 0.277 µg/mL
- Stability of Cannabinoids in AB Red ([2]; 8° C., 450 days): 0.282 µg/mL
- Stability of Cannabinoids in AB Red ([2]; 8° C., 480 days): 0.274 µg/mL
- Stability of Cannabinoids in AB Red ([2]; 8° C., 510 days): 0.267 µg/mL
- Stability of Cannabinoids in AB Red ([2]; 8° C., 540 days): 0.271 µg/mL
- Stability of Cannabinoids in AB Red ([2]; 8° C., 570 days): 0.266 µg/mL
- Stability of Cannabinoids in AB Red ([2]; 21-25° C., 0 days): 0.29 µg/mL
- Stability of Cannabinoids in AB Red ([2]; 21-25° C., 1 days): 0.28 µg/mL
- Stability of Cannabinoids in AB Red ([2]; 21-25° C., 2 days): 0.28 µg/mL
- Stability of Cannabinoids in AB Red ([2]; 21-25° C., 3 days): 0.29 µg/mL
- Stability of Cannabinoids in AB Red ([2]; 21-25° C., 5 days): 0.28 µg/mL
- Stability of Cannabinoids in AB Red ([2]; 21-25° C., 8 days): 0.28 µg/mL
- Stability of Cannabinoids in AB Red ([2]; 21-25° C., 9 days): 0.28 µg/mL
- Stability of Cannabinoids in AB Red ([2]; 21-25° C., 10 days): 0.29 µg/mL
- Stability of Cannabinoids in AB Red ([2]; 21-25° C., 11 days): 0.29 µg/mL
- Stability of Cannabinoids in AB Red ([2]; 21-25° C., 12 days): 0.28 µg/mL
- Stability of Cannabinoids in AB Red ([2]; 21-25° C., 15 days): 0.28 µg/mL
- Stability of Cannabinoids in AB Red ([2]; 21-25° C., 16 days): 0.28 µg/mL
- Stability of Cannabinoids in AB Red ([2]; 21-25° C., 17 days): 0.28 µg/mL
- Stability of Cannabinoids in AB Red ([2]; 21-25° C., 18 days): 0.29 µg/mL
- Stability of Cannabinoids in AB Red ([2]; 21-25° C., 19 days): 0.29 µg/mL
- Stability of Cannabinoids in AB Red ([2]; 21-25° C., 22 days): 0.29 µg/mL
- Stability of Cannabinoids in AB Red ([2]; 21-25° C., 23 days): 0.28 µg/mL
- Stability of Cannabinoids in AB Red ([2]; 21-25° C., 24 days): 0.29 µg/mL
- Stability of Cannabinoids in AB Red ([2]; 21-25° C., 25 days): 0.28 µg/mL
- Stability of Cannabinoids in AB Red ([2]; 21-25° C., 26 days): 0.28 µg/mL
- Stability of Cannabinoids in AB Red ([2]; 21-25° C., 29 days): 0.29 µg/mL
- Stability of Cannabinoids in AB Red ([2]; 21-25° C., 30 days): 0.29 µg/mL
- Stability of Cannabinoids in AB Red ([2]; 21-25° C., 60 days): 0.29 µg/mL
- Stability of Cannabinoids in AB Red ([2]; 21-25° C., 90 days): 0.28 µg/mL
- Stability of Cannabinoids in AB Red ([2]; 21-25° C., 120 days): 0.29 µg/mL
- Stability of Cannabinoids in AB Red ([2]; 21-25° C., 150 days): 0.29 µg/mL
- Stability of Cannabinoids in AB Red ([2]; 21-25° C., 180 days): 0.28 µg/mL
- Stability of Cannabinoids in AB Red ([2]; 21-25° C., 210 days): 0.29 µg/mL
- Stability of Cannabinoids in AB Red ([2]; 21-25° C., 240 days): 0.28 µg/mL
- Stability of Cannabinoids in AB Red ([2]; 21-25° C., 270 days): 0.29 µg/mL
- Stability of Cannabinoids in AB Red ([2]; 21-25° C., 300 days): 0.29 µg/mL
- Stability of Cannabinoids in AB Red ([2]; 21-25° C., 330 days): 0.29 µg/mL
- Stability of Cannabinoids in AB Red ([2]; 21-25° C., 390 days): 0.28 µg/mL
- Stability of Cannabinoids in AB Red ([2]; 21-25° C., 420 days): 0.28 µg/mL
- Stability of Cannabinoids in AB Red ([2]; 21-25° C., 450 days): 0.28 µg/mL
- Stability of Cannabinoids in AB Red ([2]; 21-25° C., 480 days): 0.28 µg/mL
- Stability of Cannabinoids in AB Red ([2]; 21-25° C., 510 days): 0.27 µg/mL
- Stability of Cannabinoids in AB Red ([2]; 21-25° C., 540 days): 0.28 µg/mL
- Stability of Cannabinoids in AB Red ([2]; 21-25° C., 570 days): 0.27 µg/mL
